Results from ChEMBL document CHEMBL2331514, “Structure-based design and synthesis of novel pseudosaccharine derivatives as antiproliferative agents and kinase inhibitors” (Eur J Med Chem, 2013).

Assay: Partition coefficient, log P of the compound
Format: physicochemical
Settings: octanol/water

logP | SMILES
1.26 | O=C(O)CCC(=O)Nc1ccc2c(c1)C(Nc1cccc(Br)c1)=NS2(=O)=O
3.55 | O=C(Nc1ccc(Cl)cc1)Nc1ccc(OC2=NS(=O)(=O)c3ccccc32)cc1
3.57 | O=C(Nc1ccccc1)Nc1ccc2c(c1)C(Nc1ccc(Cl)cc1Cl)=NS2(=O)=O
2.48 | CCOC(=O)C(=CNc1ccc2c(c1)C(Nc1cccc(Br)c1)=NS2(=O)=O)C(=O)OCC
2.39 | CCOC(=O)C(=CNc1ccc2c(c1)C(Nc1ccc(Cl)cc1)=NS2(=O)=O)C(=O)OCC
3.64 | O=C(Nc1ccc(Br)cc1)Nc1ccc(OC2=NS(=O)(=O)c3ccccc32)cc1
